From PMC12442081, “Combating Fuel Biocontamination: Tailored Antimicrobial Peptides and an Innovative Delivery Strategy” (ACS Applied Bio Materials, 2025)
Like-named read-outs stand apart in the source and are kept apart here. Where no end group is shown, it is not given here.

Columns and labels:
[1] = tested on: microbial clusters MY, KR, DN, MC, BL, RM, SP, PA, HR; experiment: Broad-spectrum activity score (in-house scoring matrix); details: sum over 9 microbial clusters: (+) = 1, (X) = 0, Fuel x = -1
Description: Table S4. Summarizing the broad-spectrum activity of the peptides, considering the MIC value/ efficacy to control microbial growth upon fuel co-incubation
Peptides Bacterial clusters Fungal
Actinobacteria Firmicutes Proteobacteria Asco- […]
Peptides identified based on the scoring matrix, where (+) =1 (implying peptide activity in fuel environment); (X) = 0 (implying no activity in the desired range, indicated by microbial proliferation); Fuel x = -1(implying no activity in fuel environment).
Clearly, P17 is the best performing peptide in vitro across diverse microbial phyla as well as when incubated in the fuel environment. Based on the activity of the selected peptides, the best

[2] = tested on: Micrococcus yunnanensis (MY); experiment: Effectiveness of peptides on spiked fuel samples (aqueous layer); format: cell-based; parameters: key: (+) =1 (implying peptide activity in fuel environment); (X) = 0 (implying no activity in the desired range, indicated by microbial proliferation); Fuel x = -1(implying no activity in fuel environment); details: initial screening in spiked fuel
Description: (§1) To study the partitioning of microbes in fuel tanks, filter-sterilized fuel was mixed with BH medium in a 1:1 (v/v) ratio. The inoculum was added to the aqueous phase at the bottom to simulate growth in the aqueous layer of fuel tanks and incubated aerobically at 30 °C for 30 days. Visible growth was assessed, and aliquots from both the aqueous and fuel phases were plated on nutrient agar plates to evaluate microbial growth. Peptides were initially added to the aqueous layer of microbially spiked fuel samples for screening the effectiveness in the fuel environment. The study was further extended over a longer duration, and incubated under aerobic conditions at 30 °C for 30 days. Microbial growth was monitored at regular intervals by plating aliquots from the aqueous layer on the nutrient agar plates.
(§2) The engineered peptides were administered at their respective MICs to the aqueous layer of simulated fuel samples, and samples from both the aqueous and solvent (fuel) layers were removed at intervals of 7, 14, 21, and 30 days and plated on LBA plates to assess cell viability (Table S5).

[3] = tested on: Bacillus licheniformis (BL); experiment: as above; format: cell-based; parameters: key: (+) =1 (implying peptide activity in fuel environment); (X) = 0 (implying no activity in the desired range, indicated by microbial proliferation); Fuel x = -1(implying no activity in fuel environment); details: initial screening in spiked fuel
Description: as §1, §2

[4] = tested on: Macrococcus caseolyticus (MC); experiment: as above; format: cell-based; parameters: key: (+) =1 (implying peptide activity in fuel environment); (X) = 0 (implying no activity in the desired range, indicated by microbial proliferation); Fuel x = -1(implying no activity in fuel environment); details: initial screening in spiked fuel
Description: as §1, §2

Hormoconis resinae (HR) = experiment: as above; format: cell-based; parameters: key: (+) =1 (implying peptide activity in fuel environment); (X) = 0 (implying no activity in the desired range, indicated by microbial proliferation); Fuel x = -1(implying no activity in fuel environment); details: initial screening in spiked fuel
Description: as §1, §2

Kocuria rosea (KR) = experiment: as above; format: cell-based; parameters: key: (+) =1 (implying peptide activity in fuel environment); (X) = 0 (implying no activity in the desired range, indicated by microbial proliferation); Fuel x = -1(implying no activity in fuel environment); details: initial screening in spiked fuel
Description: as §1, §2

[5] = tested on: Pseudomonas aeruginosa (PA); experiment: as above; format: cell-based; parameters: key: (+) =1 (implying peptide activity in fuel environment); (X) = 0 (implying no activity in the desired range, indicated by microbial proliferation); Fuel x = -1(implying no activity in fuel environment); details: initial screening in spiked fuel
Description: as §1, §2

[6] = tested on: Dermacoccus nishinomiyaensis (DN); experiment: as above; format: cell-based; parameters: key: (+) =1 (implying peptide activity in fuel environment); (X) = 0 (implying no activity in the desired range, indicated by microbial proliferation); Fuel x = -1(implying no activity in fuel environment); details: initial screening in spiked fuel
Description: as §1, §2

[7] = tested on: Sphingomonas paucimobilis (SP); experiment: as above; format: cell-based; parameters: key: (+) =1 (implying peptide activity in fuel environment); (X) = 0 (implying no activity in the desired range, indicated by microbial proliferation); Fuel x = -1(implying no activity in fuel environment); details: initial screening in spiked fuel
Description: as §1, §2

Roseomonas mucosa (RM) = experiment: as above; format: cell-based; parameters: key: (+) =1 (implying peptide activity in fuel environment); (X) = 0 (implying no activity in the desired range, indicated by microbial proliferation); Fuel x = -1(implying no activity in fuel environment); details: initial screening in spiked fuel
Description: as §1, §2

[8] = HPLC retention time as a function of peptide hydrophobicity; format: physicochemical; details: chromatographic, Polaris 5 C18-A reverse phase, 0.1% TFA water / 0.1% TFA acetonitrile gradient, 30 min, 300 μM peptide
Description: The purity of the peptides was ascertained by high-performance liquid chromatography (HPLC) using Polaris 5 C18-A […] × 4.6 mm reverse phase Zorbax columns from Agilent Technologies. The buffer system contained 0.1% (v/v) TFA in 100% water and 0.1% (v/v) TFA in 100% acetonitrile. Each peptide sample contained 300 μM peptides dissolved in an acetonitrile–water (1:4) mixture. A constant gradient of the two solvent systems was used to generate the chromatogram for 30 min after sample injection.

[9] = tested on: Micrococcus yunnanensis (MY) ATCC 12698; format: cell-based
Description: (§3) All of the bacterial species were grown overnight at 37 °C in LB broth. 10^7 CFU/mL of cells were resuspended in fresh culture and grown until the mid log phase. , The bacterial cells were adjusted to a concentration of 5 × 10^5 CFU/mL to quantify the MIC. Equal volumes of the respective bacterial cultures were incubated with the serially diluted peptides in 96-well microtiter plate and incubated overnight at 37 °C in ambient air. Microorganisms without peptides were treated as the positive control, while uninoculated broth was used as the negative control. The MIC was taken as the lowest peptide concentration at which observable bacteria growth was inhibited, as measured by a microplate reader (Biotek Synergy H1 microplate reader). Experiments were performed in triplicates, and the mean MIC values were determined. A similar study was performed to understand the effect of peptide purity, i.e., ranging from 70 to 95%, on the peptide MIC.

[10] = tested on: Pseudomonas aeruginosa (PA) ATCC 39327; format: cell-based
Description: as §3

[11] = tested on: Dermacoccus nishinomiyaensis (DN) ATCC 29093; format: cell-based
Description: as §3

[12] = tested on: Macrococcus caseolyticus (MC) ATCC 13548; format: cell-based
Description: as §3

[13] = tested on: Bacillus licheniformis (BL) ATCC 14580; format: cell-based
Description: as §3

[14] = tested on: Sphingomonas paucimobilis (SP); format: cell-based
Description: as §3

[15] = LB broth, 5 × 10^5 CFU/mL, overnight 37 °C, mean of triplicates, “–” = no detectable activity

Row | Molecule | Score [1] | activity considering MIC value/efficacy upon fuel co-incubation [2] | activity considering MIC value/efficacy upon fuel co-incubation [3] | activity considering MIC value/efficacy upon fuel co-incubation [4] | activity considering MIC value/efficacy upon fuel co-incubation (Hormoconis resinae (HR)) | activity considering MIC value/efficacy upon fuel co-incubation (Kocuria rosea (KR)) | activity considering MIC value/efficacy upon fuel co-incubation [5] | activity considering MIC value/efficacy upon fuel co-incubation [6] | activity considering MIC value/efficacy upon fuel co-incubation [7] | activity considering MIC value/efficacy upon fuel co-incubation (Roseomonas mucosa (RM)) | R t, retention time of peptide on HPLC column as a function of peptide hydrophobicity [8] [min] | MIC [9] [µM] | MIC ([10]; ATCC 39327) [µM] | MIC [11] [µM] | MIC [12] [µM] | MIC ([13]; ATCC 14580) [µM] | MIC [14] [µM] | MIC [10, 15] [µM] | MIC [13, 15] [µM] | MIC [14, 15] [µM]
1 | CC[C@H](C)[C@H](N)C(=O)N[C@@H](CC(C)C)C(=O)N[C@H](C(=O)N[C@@H](Cc1c[nH]c2ccccc12)C(=O)N[C@@H](CCCCN)C(=O)N[C@@H](Cc1c[nH]c2ccccc12)C(=O)N1CCC[C@H]1C(=O)N[C@@H](Cc1c[nH]c2ccccc12)C(=O)N[C@@H](Cc1c[nH]c2ccccc12)C(=O)N1CCC[C@H]1C(=O)N[C@@H](Cc1c[nH]c2ccccc12)C(=O)N[C@@H](CCCNC(=N)N)C(=O)N[C@@H](CCCNC(=N)N)C(=O)O)C(C)C [P12] | 4 | X | + | + | X | X | X | + | + | X | 12.903 | 0.9 | 7.8 | 0.9 | 0.9 | 3.9 | 0.9 | – | – | –
2 | CC[C@H](C)[C@H](N)C(=O)N[C@@H](CC(C)C)C(=O)N[C@@H](Cc1c[nH]c2ccccc12)C(=O)N[C@@H](Cc1c[nH]c2ccccc12)C(=O)N[C@@H](CCCCN)C(=O)N[C@@H](Cc1c[nH]c2ccccc12)C(=O)N1CCC[C@H]1C(=O)N[C@@H](Cc1c[nH]c2ccccc12)C(=O)N[C@@H](Cc1c[nH]c2ccccc12)C(=O)N1CCC[C@H]1C(=O)N[C@@H](Cc1c[nH]c2ccccc12)C(=O)N[C@@H](CCCNC(=N)N)C(=O)N[C@@H](CCCNC(=N)N)C(=O)O [P15] | 3 | X | + | + | X | X | X | X | + | X | 14.327 | – | – | – | 0.9 | 0.9 | 0.9 | – | – | –
3 | ILPWKFPWWPWRR [P9] | 4 | + | + | + | X | X | X | + | X | X | 12.610 | 0.9 | 31.25 | 0.9 | 0.9 | 3.9 | 7.8 | – | – | –
4 | ILPWRWPWWPWRR [P10] | 1 | X | + | X | X | X | X | X | X | X | 12.417 | – | – | – | – | – | – | 31.25 | 3.9 | 7.8
